The results in this text go back to patent US12630521B2, “Arylamides and methods of use thereof” (Genzyme Corporation, priority 2019, dated 2026).

In general, EC50 refers to the midpoint of the concentration-response curve. A low value points to higher potency in that assay. The term Emax denotes the greatest response seen or fitted, relative to the assay's reference.

Each structure is given as a SMILES string.

Assay [1] has as its target T1, CFTR (ΔF508 homozygous CF-HBE cells) (Homo sapiens, UniProt P13569, DEL508-508).
T1 construct: Primary human bronchial epithelial cells from a ΔF508 homozygous CF donor; host or cells: primary CF-HBE cells (ΔF508/ΔF508 donor)
Nature of the assay: TECC24 AUC fold over DMSO @10 uM: CFTR-mediated transepithelial chloride transport in primary CF-HBE cells. It is filed as cell-based. Particulars: 10 μM test agent, 48 hours, forskolin-stimulated IEQ AUC divided by vehicle AUC. The procedure: Example 37: TECC24 AUC Fold Over DMSO @10 uM
The effects of a test agent on CFTR-mediated transepithelial chloride transport was measured using TECC24 recording analysis. Test agents were solubilized in DMSO. Solubilized test agents were mixed with incubation medium containing DMEM/F12, Ultroser G (2%; Crescent Chemical, catalog #67042), Hyclone Fetal Clone 11(2%; GE Healthcare, catalog #SH30066.02), bovine brain extract (0.25%; Lonza, catalog #CC-4098), insulin (2.5 μg/mL), IL-13 (10 ng/mL), hydrocortisone (20 nM), transferrin (2.5 μg/mL), triiodothyronine (500 nM), ethanolamine (250 nM), epinephrine (1.5 μM), phosphoethanolamine (250 nM), and retinoic acid (10 nM). Primary human bronchial epithelial cells from a ΔF508 homozygous CF donor (CF-HBE cells; from University of North Carolina Cystic Fibrosis Tissue Procurement Center), grown on Transwell HTS 24-well cell culture inserts (Costar, catalog #3378), were exposed to test agents or controls dissolved in incubation medium. The CF-HBE cells were cultured at 36.5° C. for 48 hours before TECC24 recordings were performed in the presence or absence of test agent, a positive control or vehicle (DMSO).
Following incubation, the transwell cell culture inserts containing the test agent or control-treated CF-HBE cells were loaded onto a TECC24 apparatus (TECC v7 or MTECC v2; EP Design) to record the transepithelial voltage (VT) and resistance (TEER) using 4 AgCl electrodes per well configured in current-clamp mode. The apical and basolateral bath solutions both contained (in mM) 140 NaCl, 5 KCl, 2 CaCl2, 1 MgCl2, 10 Hepes, and 10 glucose (adjusted to pH 7.4 with NaOH). To inhibit basal Na+ absorption, the ENaC inhibitor benzamil (10 μM) was added to the bath. Then, the adenylate cyclase activator, forskolin (10 μM), was added to the bath to activate CFTR. The forskolin-stimulated Cl— transport was halted by addition of CFTR inhibitor-172 (20 μM) to the bath at the end of the experiment to confirm specificity. VT and TEER recordings were digitally acquired at routine intervals using TECC or MTECC software (EP Design). VT and TEER were transformed into equivalent transepithelial Cl-current (IEQ), and the Area Under the Curve (AUC) of the IEQ time course between forskolin and CFTR inhibitor-172 addition is generated using Excel (Microsoft). Efficacy is expressed as the ratio of the test agent AUC divided by vehicle AUC. EC50s based on AUC are generated using the non-linear regression log(agonist) vs. response function in Prism software (GraphPad) with Hill Slope fixed=1.
If a test agent increased the AUC of the forskolin-stimulated IEQ relative to vehicle in CF-HBE cells, and this increase was inhibited by CFTR inhibitor-172, then the test agent was considered a CFTR corrector.

Assay [2] deals with T2, human Cystic Fibrosis Transmembrane Conductance Regulator (CFTR) harboring the ΔF508 mutation (Homo sapiens, UniProt P13569, DEL508-508).
T2 construct: expressed in transfected cells; host or cells: H441 carcinoma cell line (G418 selection)
Nature of the assay: H441 cell Emax and EC50: HRP-tagged ΔF508-CFTR cell-surface luminescence assay. It is filed as cell-based. Particulars: H441 cells expressing HRP-tagged ΔF508-CFTR, 27° C. for two nights; for EC50: 15-point dose-response; for Emax: NCI-H441, % of maximum VX809 signal. An excerpt: Example 36: H441 Cell Emax and EC50
Two cell lines were used, the H441 carcinoma line and the CFHBE41o− (41o−) human bronchial epithelial line. Both cell lines expressed human Cystic Fibrosis Transmembrane Conductance Regulator (CFTR) harboring the ΔF508 mutation and with an in-frame fusion in CFTR extracellular loop 4 of Horse Radish Peroxidase (HRP) under control of the CMV promoter. In the presence of the HRP tag, ΔF508-CFTR transported to the cell surface was detectable upon addition of an HRP substrate (Luminata Forte). Both cell types were cultivated at 37° C. with CO2.
For both cell types, the medium was changed every other day unless the culture was at low % confluence. Cells were used for the assays at ˜75% confluence.
DMSO/Compound Dilutions Plate for 15-Point Dose-Response Testing
To a polypropylene (PP) 384-well plate, 15 μls DMSO was added to all wells in columns 1-22 and 24 (low Control). 15 μls of 260 μM VX809 (Lumacaftor), Selleckchem S1565, was added to column 23 wells (high Control). 15 μls of 10 mM test compound or VX809 (control) were added to wells of row A. Serial dilutions of Row A compound were performed 2×15 μls in rows A through 0 (15-point).
A PP, 384-well plate containing the appropriate cell culture medium was prepared for each assay plate with 100 μls per well. For the doxycycline-induced 41o− cells, doxycycline for both the assay plate and the medium dilution plate was added at 0.0005 mg/ml to the medium.
Both cell lines were plated for the assay at 30 μls per 384-well at 3.4×10^e5 cells per ml (˜10K cells/well). H441 cells were plated on opaque, white, Corning plate 3704. 41o− cells were plated on collagen-coated opaque, white, Corning plate 356665. For 41o− cells, doxycycline was added to the medium.
Compound Addition/Assay Incubation
Using FX (Beckman) protocol, 10 μls diluted compound or medium was added per well to the Assay Plate as: 2 μls DMSO Dilution plate well is diluted in 100 μls of the Medium Dilution Plate well, mixed, and 10 μls is transferred to the Assay Plate.
The final assay dilution series is 24.5, 12.3, 6.1, 3.1, 1.5, 0.8, 0.4, 0.2, 0.1, 0.05, 0.02, 0.01, 0.006, 0.003, 0.001 and 0 μM. The 41o− assay plates were incubated at 37° C. w/CO2, the H441 assay plates were incubated at 27° C. w/CO2, each overnight for two nights.
Assay Result Determination
After being brought to room temperature, the assay plate liquid was removed. 30 uls of Luminata Forte (Millipore ELLUF0100) was added per well and incubated at room temperature for 10 min. The plates were then read on a Topcount, protocol LumiMatti (CPS, luminescence). The data was analyzed for % of maximum, maximum VX809 signal, and EC50 using Pearl and SPEED tools.

T1 sequence (P13569 with tags, fused parts or gaps DEL508-508): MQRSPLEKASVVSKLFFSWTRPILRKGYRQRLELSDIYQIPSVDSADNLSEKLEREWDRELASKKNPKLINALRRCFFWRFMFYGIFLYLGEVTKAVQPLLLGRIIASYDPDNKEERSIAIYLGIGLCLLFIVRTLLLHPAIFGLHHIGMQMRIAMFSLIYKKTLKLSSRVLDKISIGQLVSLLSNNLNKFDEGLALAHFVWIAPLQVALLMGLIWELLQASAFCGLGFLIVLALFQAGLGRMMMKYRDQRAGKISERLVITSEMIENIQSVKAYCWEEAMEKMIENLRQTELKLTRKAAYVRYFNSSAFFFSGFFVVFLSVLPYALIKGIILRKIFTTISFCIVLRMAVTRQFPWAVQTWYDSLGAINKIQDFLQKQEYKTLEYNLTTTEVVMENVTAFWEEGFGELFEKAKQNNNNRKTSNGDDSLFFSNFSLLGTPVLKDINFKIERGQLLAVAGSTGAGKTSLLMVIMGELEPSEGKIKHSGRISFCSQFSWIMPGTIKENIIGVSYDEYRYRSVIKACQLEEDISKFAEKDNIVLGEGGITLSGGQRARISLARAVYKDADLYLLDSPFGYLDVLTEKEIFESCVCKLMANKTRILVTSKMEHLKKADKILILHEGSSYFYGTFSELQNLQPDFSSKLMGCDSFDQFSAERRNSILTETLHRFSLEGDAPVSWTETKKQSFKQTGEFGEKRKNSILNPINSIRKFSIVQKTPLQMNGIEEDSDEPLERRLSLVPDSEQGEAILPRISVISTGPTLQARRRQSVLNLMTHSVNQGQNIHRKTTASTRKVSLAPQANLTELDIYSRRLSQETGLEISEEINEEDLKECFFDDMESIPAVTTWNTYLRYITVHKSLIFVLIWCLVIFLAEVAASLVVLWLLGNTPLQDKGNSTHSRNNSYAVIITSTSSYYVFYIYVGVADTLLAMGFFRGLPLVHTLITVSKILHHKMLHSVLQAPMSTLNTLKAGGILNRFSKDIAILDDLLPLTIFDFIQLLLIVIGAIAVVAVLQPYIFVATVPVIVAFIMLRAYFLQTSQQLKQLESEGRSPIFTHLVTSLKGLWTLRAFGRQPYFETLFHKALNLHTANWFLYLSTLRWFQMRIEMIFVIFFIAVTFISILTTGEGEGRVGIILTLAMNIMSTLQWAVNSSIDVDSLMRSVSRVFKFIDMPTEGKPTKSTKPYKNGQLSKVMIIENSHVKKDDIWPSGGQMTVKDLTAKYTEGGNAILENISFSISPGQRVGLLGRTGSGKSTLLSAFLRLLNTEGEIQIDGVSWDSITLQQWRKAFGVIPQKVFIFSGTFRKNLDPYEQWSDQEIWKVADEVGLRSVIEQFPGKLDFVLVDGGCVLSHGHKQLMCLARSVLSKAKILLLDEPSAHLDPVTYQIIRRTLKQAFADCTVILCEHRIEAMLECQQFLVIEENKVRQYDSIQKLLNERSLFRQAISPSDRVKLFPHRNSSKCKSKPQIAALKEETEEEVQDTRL
T2 sequence (P13569 with tags, fused parts or gaps DEL508-508): as above

Turning to `CC(C)(C)[C@H](NC(=O)c1ccc2sccc2c1OCc1ccc(SC(F)(F)F)cc1)C(=O)O` [Compound 32-11, (2S)-3,3-dimethyl-2-(4-((4-((trifluoromethyl)thio)benzyl)oxy)-benzo[b]thiophene-5-carboxamido)butanoic acid], the “TECC24 AUC fold over DMSO” value in assay [1] is “B (“B” refers to AUC @10 μM between 4-6)”. For the same molecule, in assay [2], the EC50 worked out at 1040 nM and the Emax is 81.3%.

In the case of `CC(C)(C)[C@H](NC(=O)c1ccc2sccc2c1OCc1nc2ccccc2s1)C(=O)O` [Compound 32-13, (2S)-2-(4-(benzo[d]thiazol-2-ylmethoxy)-benzo[b]thiophene-5-carboxamido)-3,3-dimethylbutanoic acid], the “TECC24 AUC fold over DMSO” value in assay [1] is listed as “C (“C” refers to AUC @10 μM < 4)”. In assay [2], this molecule came in with an EC50 of 4120 nM and a maximum response (Emax) of 143%.

For `CC(C)(C)[C@H](NC(=O)c1ccc2sccc2c1OCC1CCCCC1)C(=O)O` [Compound 32-14, (2S)-2-(4-(cyclohexylmethoxy)-benzo[b]thiophene-5-carboxamido)-3,3-dimethylbutanoic acid], the “TECC24 AUC fold over DMSO” value in assay [1] was “C (“C” refers to AUC @10 μM < 4)”. For the same molecule, in assay [2], the midpoint of the response, the EC50, lay at 2780 nM and the Emax is 210%.

As to `CCC(C)(C)[C@H](NC(=O)c1ccc2sc(C)c(Cl)c2c1OCc1ccc(C(F)(F)F)cc1)C(=O)O` [Compound 33-1, (2S)-2-[[3-chloro-2-methyl-4-[[4-(trifluoromethyl)phenyl]methoxy]benzothiophene-5-carbonyl]amino]-3,3-dimethyl-pentanoic acid], the “TECC24 AUC fold over DMSO” value in assay [1] is given as “A (“A” refers to AUC @10 μM > 6)”. Further, in assay [2], the 50% effective concentration (EC50) was 647 nM and the Emax came to 308%.

`CC(C)CCc1cc2c(OCc3ccc(C(F)(F)F)cc3)c(C(=O)N[C@H](C(=O)O)C(C)(C)C)ccc2s1` [Compound 33-2, (2S)-2-[[2-isopentyl-4-[[4-(trifluoromethyl)phenyl]methoxy]benzothiophene-5-carbonyl]amino]-3,3-dimethyl-butanoic acid]: in assay [1], the “TECC24 AUC fold over DMSO” value is listed as “B (“B” refers to AUC @10 μM between 4-6)”. For the same molecule, in assay [2], the concentration for a half-maximal effect (EC50) came out at 441 nM and the Emax is 216%.

In the case of `CC(C)(C)[C@H](NC(=O)c1ccc2sc(C(F)F)cc2c1OCc1ccc(C(F)(F)F)cc1)C(=O)O` [Compound 33-3, (2S)-2-(2-(difluoromethyl)-4-((4-(trifluoromethyl)benzyl)oxy)-benzo[b]thiophene-5-carboxamido)-3,3-dimethylbutanoic acid], the “TECC24 AUC fold over DMSO” value in assay [1] is “A (“A” refers to AUC @10 μM > 6)”. Also, in assay [2], the 50% effective concentration (EC50) was found to be 884 nM and the Emax was 350%.

With `CC(C)c1cc2c(OCc3ccc(OC(F)(F)F)cc3)c(C(=O)N[C@H](C(=O)O)C(C)(C)C)ccc2s1` [Compound 33-4, (2S)-2-(2-isopropyl-4-((4-(trifluoromethoxy)benzyl)oxy)-benzo[b]thiophene-5-carboxamido)-3,3-dimethylbutanoic acid], in assay [1], the “TECC24 AUC fold over DMSO” value is recorded as “A (“A” refers to AUC @10 μM > 6)”. In assay [2], the EC50 came out at 2350 nM and the maximal response (Emax) was found to be 232%.

For `CC(C)(C)[C@H](NC(=O)c1ccc2sc(Cl)cc2c1OCc1ccc(C(F)(F)F)cc1)C(=O)O` [Compound 33-5, (2S)-2-(2-chloro-4-((4-(trifluoromethyl)benzyl)oxy)-benzo[b]thiophene-5-carboxamido)-3,3-dimethylbutanoic acid], in assay [1], the “TECC24 AUC fold over DMSO” value is reported as “A (“A” refers to AUC @10 μM > 6)”. In assay [2], this molecule yielded an EC50 of 262 nM and a maximal response (Emax) of 251%.

For `CCC(C)(C)[C@H](NC(=O)c1ccc2sc(Cl)cc2c1OCc1ccc(C(F)(F)F)cc1)C(=O)O` [Compound 33-6, (2S)-2-(2-chloro-4-((4-(trifluoromethyl)benzyl)oxy)-benzo[b]thiophene-5-carboxamido)-3,3-dimethylpentanoic acid], the “TECC24 AUC fold over DMSO” value in assay [1] is listed as “A (“A” refers to AUC @10 μM > 6)”. In assay [2], this molecule returned an EC50 of 500 nM and a maximal response (Emax) of 279%.

For the molecule `COc1cc2c(OCc3ccc(C(F)(F)F)cc3)c(C(=O)N[C@H](C(=O)O)C(C)(C)C)ccc2s1` [Compound 33-7, (2S)-2-(2-methoxy-4-((4-(trifluoromethyl)benzyl)oxy)-benzo[b]thiophene-5-carboxamido)-3,3-dimethylbutanoic acid], the “TECC24 AUC fold over DMSO” value in assay [1] is listed as “A (“A” refers to AUC @10 μM > 6)”. In assay [2], this molecule gave an EC50 of 641 nM and an Emax of 312%.

On to `Cc1cc2ccc(C(=O)N[C@H](C(=O)O)C(C)(C)C)c(OCc3ccc(OC(F)(F)F)cc3)c2s1` [Compound 33-8, (2S)-3,3-dimethyl-2-(2-methyl-7-((4-(trifluoromethoxy)benzyl)oxy)-benzo[b]thiophene-6-carboxamido)butanoic acid], for which the “TECC24 AUC fold over DMSO” value in assay [1] is listed as “A (“A” refers to AUC @10 μM > 6)”. For the same molecule, in assay [2], the EC50 is 658 nM and the maximum response (Emax) worked out at 155%.

In the case of `CCC(C)(C)[C@H](NC(=O)c1ccc2sc(C)c(Cl)c2c1OCc1ccc(OC(F)(F)F)cc1)C(=O)O` [Compound 33-9, (2S)-2-(3-chloro-2-methyl-4-((4-(trifluoromethoxy)benzyl)oxy)-benzo[b]thiophene-5-carboxamido)-3,3-dimethylpentanoic acid], the “TECC24 AUC fold over DMSO” value in assay [1] is “A (“A” refers to AUC @10 μM > 6)”. In assay [2], this molecule had an EC50 of 1130 nM and an Emax of 250%.

With `CCc1cc2ccc(C(=O)N[C@H](C(=O)O)C(C)(C)CC)c(OCc3ccc(OC(F)(F)F)cc3)c2s1` [Compound 33-10, (2S)-2-(2-ethyl-7-((4-(trifluoromethoxy)benzyl)oxy)-benzo[b]thiophene-6-carboxamido)-3,3-dimethylpentanoic acid], the “TECC24 AUC fold over DMSO” value in assay [1] is “B (“B” refers to AUC @10 μM between 4-6)”. For the same molecule, in assay [2], the EC50 is 1250 nM and the maximal effect (Emax) turned out to be 216%.
